Test results published in PubChem BioAssay (NCI).
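Test compounds were applied to cells in 96-well plates for 48 hours at 5 doses. At the GI50, growth is halved. TGI marks complete inhibition of growth.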

Key:
Assay in all cases: inhibition of tumour cell growth, NCI panel, 48 h
786-0 renal = system: 786-0 renal
A498 renal = system: A498 renal
A549 NSCLC = system: A549 NSCLC
ACHN renal = system: ACHN renal
BT-549 breast = system: BT-549 breast
CAKI-1 renal = system: CAKI-1 renal
CCRF-CEM leukemia = system: CCRF-CEM leukemia
COLO 205 colon = system: COLO 205 colon
DU-145 prostate = system: DU-145 prostate
HCC-2998 colon = system: HCC-2998 colon
HCT-116 colon = system: HCT-116 colon
HCT-15 colon = system: HCT-15 colon
HL-60(TB) leukemia = system: HL-60(TB) leukemia
HOP-62 NSCLC = system: HOP-62 NSCLC
HOP-92 NSCLC = system: HOP-92 NSCLC
HS 578T breast = system: HS 578T breast
HT29 colon = system: HT29 colon
IGROV1 ovarian = system: IGROV1 ovarian
K-562 leukemia = system: K-562 leukemia
KM12 colon = system: KM12 colon
LOX IMVI melanoma = system: LOX IMVI melanoma
M14 melanoma = system: M14 melanoma
MALME-3M melanoma = system: MALME-3M melanoma
MCF7 breast = system: MCF7 breast
MDA-MB-231 breast = system: MDA-MB-231 breast
MDA-MB-435 = system: MDA-MB-435
MOLT-4 leukemia = system: MOLT-4 leukemia
NCI-H226 lung = system: NCI-H226 lung
NCI-H23 lung = system: NCI-H23 lung
NCI-H460 lung = system: NCI-H460 lung
NCI-H522 lung = system: NCI-H522 lung
NCI/ADR-RES ovarian = system: NCI/ADR-RES ovarian
OVCAR-3 ovarian = system: OVCAR-3 ovarian
OVCAR-4 ovarian = system: OVCAR-4 ovarian
OVCAR-5 ovarian = system: OVCAR-5 ovarian
OVCAR-8 ovarian = system: OVCAR-8 ovarian
PC-3 prostate = system: PC-3 prostate
RPMI-8226 leukemia = system: RPMI-8226 leukemia
RXF 393 renal = system: RXF 393 renal
SF-268 CNS = system: SF-268 CNS
SF-295 CNS = system: SF-295 CNS
SF-539 CNS = system: SF-539 CNS
SK-MEL-28 melanoma = system: SK-MEL-28 melanoma
SK-MEL-5 melanoma = system: SK-MEL-5 melanoma
SK-OV-3 ovarian = system: SK-OV-3 ovarian
SN12C renal = system: SN12C renal
SNB-19 CNS = system: SNB-19 CNS
SNB-75 CNS = system: SNB-75 CNS
SR leukemia = system: SR leukemia
SW-620 colon = system: SW-620 colon
T-47D breast = system: T-47D breast
TK-10 renal = system: TK-10 renal
U251 CNS = system: U251 CNS
UACC-257 melanoma = system: UACC-257 melanoma
UACC-62 melanoma = system: UACC-62 melanoma
UO-31 renal = system: UO-31 renal

CC1=C(CC(=O)c2cccc([N+](=O)[O-])c2)C(=O)c2ccccc2C1=O
GI50 (786-0 renal): 14.8 µM | TGI (786-0 renal): 35.4 µM | GI50 (A498 renal): 42.5 µM | TGI (A498 renal): > 100 µM | GI50 (A549 NSCLC): 15.6 µM | TGI (A549 NSCLC): 36.2 µM | GI50 (ACHN renal): 2.96 µM | TGI (ACHN renal): 11.9 µM | GI50 (BT-549 breast): 13.2 µM | TGI (BT-549 breast): 26.5 µM | GI50 (CAKI-1 renal): 21.7 µM | TGI (CAKI-1 renal): > 100 µM | GI50 (CCRF-CEM leukemia): 3.19 µM | TGI (CCRF-CEM leukemia): 19.3 µM | GI50 (COLO 205 colon): 19.7 µM | TGI (COLO 205 colon): 37.6 µM | GI50 (DU-145 prostate): 7.55 µM | TGI (DU-145 prostate): 20.1 µM | GI50 (HCC-2998 colon): 38 µM | TGI (HCC-2998 colon): > 100 µM | GI50 (HCT-116 colon): 3.01 µM | TGI (HCT-116 colon): 10.6 µM | GI50 (HCT-15 colon): 3.79 µM | TGI (HCT-15 colon): 19.5 µM | GI50 (HL-60(TB) leukemia): 2.88 µM | TGI (HL-60(TB) leukemia): 7.8 µM | GI50 (HOP-62 NSCLC): 4.05 µM | TGI (HOP-62 NSCLC): 16.1 µM | GI50 (HOP-92 NSCLC): 4.38 µM | TGI (HOP-92 NSCLC): 17.7 µM | GI50 (HS 578T breast): 4.74 µM | TGI (HS 578T breast): 48.6 µM | GI50 (HT29 colon): 20.1 µM | TGI (HT29 colon): 58.8 µM | GI50 (IGROV1 ovarian): 4.62 µM | TGI (IGROV1 ovarian): 29 µM | GI50 (K-562 leukemia): 7.25 µM | TGI (K-562 leukemia): 38.9 µM | GI50 (KM12 colon): 17.3 µM | TGI (KM12 colon): 49.5 µM | GI50 (LOX IMVI melanoma): 2.22 µM | TGI (LOX IMVI melanoma): 8.31 µM | GI50 (M14 melanoma): 6.66 µM | TGI (M14 melanoma): 22.3 µM | GI50 (MALME-3M melanoma): 4.95 µM | TGI (MALME-3M melanoma): 18.3 µM | GI50 (MCF7 breast): 1.41 µM | TGI (MCF7 breast): 3.65 µM | GI50 (MDA-MB-231 breast): 1.89 µM | TGI (MDA-MB-231 breast): 12.7 µM | GI50 (MDA-MB-435): 2.13 µM | TGI (MDA-MB-435): 4.04 µM | GI50 (MOLT-4 leukemia): 3.27 µM | TGI (MOLT-4 leukemia): 14.1 µM | GI50 (NCI-H226 lung): 18.7 µM | TGI (NCI-H226 lung): 46.5 µM | GI50 (NCI-H23 lung): 9.12 µM | TGI (NCI-H23 lung): 36.9 µM | GI50 (NCI-H460 lung): 18.2 µM | TGI (NCI-H460 lung): > 100 µM | GI50 (NCI-H522 lung): 2.97 µM | TGI (NCI-H522 lung): 8.84 µM | GI50 (NCI/ADR-RES ovarian): 3.38 µM | TGI (NCI/ADR-RES ovarian): 20.6 µM | GI50 (OVCAR-3 ovarian): 2.82 µM | TGI (OVCAR-3 ovarian): 9.34 µM | GI50 (OVCAR-4 ovarian): 1.86 µM | TGI (OVCAR-4 ovarian): 7 µM | GI50 (OVCAR-5 ovarian): 6.98 µM | TGI (OVCAR-5 ovarian): 20.5 µM | GI50 (OVCAR-8 ovarian): 5.87 µM | TGI (OVCAR-8 ovarian): 48.9 µM | GI50 (PC-3 prostate): 7.14 µM | TGI (PC-3 prostate): 63.2 µM | GI50 (RPMI-8226 leukemia): 4.42 µM | TGI (RPMI-8226 leukemia): 37.4 µM | GI50 (RXF 393 renal): 3.14 µM | TGI (RXF 393 renal): 16.6 µM | GI50 (SF-268 CNS): 9.19 µM | TGI (SF-268 CNS): 26.9 µM | GI50 (SF-295 CNS): 17.7 µM | TGI (SF-295 CNS): 36.4 µM | GI50 (SF-539 CNS): 3.02 µM | TGI (SF-539 CNS): 10.9 µM | GI50 (SK-MEL-28 melanoma): 3.54 µM | TGI (SK-MEL-28 melanoma): 13.9 µM | GI50 (SK-MEL-5 melanoma): 1.67 µM | TGI (SK-MEL-5 melanoma): 3.73 µM | GI50 (SK-OV-3 ovarian): 28.6 µM | TGI (SK-OV-3 ovarian): 99.2 µM | GI50 (SN12C renal): 2.61 µM | TGI (SN12C renal): 8.39 µM | GI50 (SNB-19 CNS): > 100 µM | TGI (SNB-19 CNS): > 100 µM | GI50 (SNB-75 CNS): 2.22 µM | TGI (SNB-75 CNS): 10.2 µM | GI50 (SR leukemia): 3.21 µM | TGI (SR leukemia): 12.6 µM | GI50 (SW-620 colon): 4.01 µM | TGI (SW-620 colon): 18.9 µM | GI50 (T-47D breast): 2.46 µM | TGI (T-47D breast): 8.47 µM | GI50 (TK-10 renal): 39.7 µM | TGI (TK-10 renal): 85.8 µM | GI50 (U251 CNS): 6.74 µM | TGI (U251 CNS): 21.6 µM | GI50 (UACC-257 melanoma): 3.94 µM | TGI (UACC-257 melanoma): 16.1 µM | GI50 (UACC-62 melanoma): 2.63 µM | TGI (UACC-62 melanoma): 8.4 µM | GI50 (UO-31 renal): 10.7 µM | TGI (UO-31 renal): 28.8 µM
